# Key:
# GSK-3 = assay: Immunohistochemistry, subcellular (endolysosomal) localisation of GSK-3; type: cell-based, Mensch; conditions: 100 µM, versus control medium (Figur 4B)
# From the text: Frische eingefrorene Gewebeschnitte wurden für 10 Minuten in 100 % Methanol fixiert. Nach einer Trocknungszeit von 10 Minuten wurden die Schnitte bei Raumtemperatur mit TBS (RT-TBS) gewaschen. Danach wurden die Gewebeproben zur Inhibition der endogenen Peroxidase 15 Minuten lang in RT-TBS mit 3 % H2O2 inkubiert.
# Nach einem Waschschritt mit RT-TBS wurden die Proben in TBS mit 0,3 % Triton X für 15 Minuten permeabilisiert. Die Schnitte wurden in einer 1 : 100-Verdünnung mit Anti-Phospho-GSK-3-alpha/beta-Antikörpern (Cell Signaling Technology Inc., Massachusetts, USA, Katalognummern 5676 und 9331) über Nacht bei 4 °C inkubiert.
# Am nächsten Tag wurden die Objektträger mit RT-TBS gewaschen und danach für 20 Minuten bei Raumtemperatur mit einem sekundären Polylink-Antikörper inkubiert. Nach dem Waschen mit RT-TBS wurden die Proben mit Peroxidase-Marker (HRP) (beide DCS Detection line, Innovative Diagnostik-Systeme, Hamburg, Deutschland) inkubiert.
# Nach dem Waschen mit RT-PBS wurden die Schnitte in AEC (DCS Chromoline, Innovative Diagnostik-Systeme, Hamburg, Deutschland) inkubiert. Die Reaktion wurde mit RT-TBS gestoppt. Schließlich wurde eine Zellkernfärbung mit Mayer's Haematoxylin durchgeführt. Die Schnitte wurden in wässrigem "Dako Faramount Medium" (Dako North America Inc., Carpinteria, CA, USA) eingebettet. […]
# Akt = assay: Western blot of Akt and P-Akt in nasal polyp protein extracts; type: cell-based, Mensch; conditions: 100 µM; all analysed protein extracts of nasal polyps (Figur 5)
# Method: Lysate von Geweben wurden durch Erhitzen über einen Zeitraum von 5 Minuten in einfachem SDS-Probenpuffer (Carl Roth GmbH, Karlsruhe, Deutschland) denaturiert. Die Proteinkonzentrationen wurden mittels des Bradford-Tests bestimmt und jeweils 30 µg Gesamtprotein wurden zur SDS-Polyacrylamid-Gel Elektrophorese eingesetzt (Mini-Protean TGX®, Any kD, BioRad, Hercules, CA, USA) und anschließend auf Nitrozellulosemembranen übertragen. Die Übertragung der Proteine wurde mittels Ponceau-Färbung kontrolliert.
# Neben der Phosphorylierung an Serin-9/-21 wird die GSK-3-Aktivität auch auf dem Level seiner subzellulären Lokalisierung reguliert. GSK-3 kann zur Trennung von seinen Substraten in endolysosomale Vesikel verlagert werden, um die Kinase-Aktivität zu verringern. […] GSK-3 ist in die Regulation von zahlreichen biosynthetischen Signalwegen involviert und zahlreiche Kinasen sind in der Lage, die GSK-3-Aktivität durch Phosphorylierung an dessen aktivierenden oder hemmenden Phosphorylierungsstellen zu regulieren. Die Akt-Kinase (auch bekannt als PKB) wurde als Onkogen mit Serin/Threonin-Kinase-Aktivität identifiziert und es wurde gezeigt, dass diese in vivo einen negativen Regulator der GSK3-beta Aktivität darstellt. Akt kann durch Phosphorylierung an Serin-473 durch PDK1 aktiviert werden, wobei davon ausgegangen wird, dass PHLPP als Inhibitor von dessen Phosphorylierung fungiert. […]
# Phosphokinasen = assay: Human Phospho-Kinase Antibody Array on nasal epithelial cells; type: cell-based, Mensch; conditions: 100 µM, 24 Stunden; epithelial cells from nasal polyps compared with epithelial cells from inferior turbinates
# From the text: Pflanzliche Medikationen könnten diese Nebenwirkungen reduzieren. In der Naturheilkunde werden ätherische Öle aufgrund ihrer sekretolytischen Eigenschaften zur Behandlung von Menschen eingesetzt, die klinische Verwendung wird jedoch aufgrund von Reizungen der Atemwege nach Inhalation bzw. Aufnahme eingeschränkt. Der Hauptbestandteil von Eukalyptusöl, nämlich 1,8-Cineol, wurde zur Behandlung von akuter und chronischer Bronchitis, Sinusitis und respiratorischen Infekten eingesetzt und allgemein gut vertragen. Bei dem Monoterpen 1,8-Cineol handelt es sich um ein Isoprenoid mit antiinflammatorischen Eigenschaften, welches menschlichen Isoprenoiden, wie Glucocorticoid, ähnelt. Unlängst wurden seitens der Anmelderin neue Eigenschaften des Mechanismus von 1,8-Cineol in Epithelzellen des Nasenpolypengewebes von Patienten mit chronischer Rhinosinusitis entdeckt. Im Rahmen dieser Studien hat die Anmelderin Epithelzellen aus Nasenpolypen und Gewebe der unteren Nasenmuscheln von zahlreichen Patienten isoliert und über einen Zeitraum von 24 Stunden in 100 µM 1,8-Cineol inkubiert. Die Proteine wurden isoliert und die Phosphokinasen mit Hilfe des "Human Phospho-Kinase Antibody Array" von R&D Systems ermittelt. […]
# [1] = system: Patienten mit Polyposis nasi et sinuum; type: in vivo, Mensch
# From the text: Im Rahmen einer klinischen Anwendung erhielten 22 Patienten nach einer Nasennebenhöhlenoperation zusätzlich zu einer Standardmedikation 1,8-Cineol (Soledum forte®), 3-mal 1 Kapsel, über einen Zeitraum von 3 Monaten. Die präoperativen CT-Bilder wurden nach dem Lund-Mackay-Score bewertet. Die Patienten wurden gebeten, ihre Beschwerden mittels eines Fragebogens (SNOT20 - German adapted version) einzuschätzen. 21 von 22 Patienten beendeten die Therapie wie vorgesehen. Ein Patient berichtete über gastrointestinale Nebenwirkungen und brach die Behandlung mit 1,8-Cineol ab. […] Somit war ein gutes Ansprechen auf die zusätzliche medikamentöse Behandlung mit 1,8-Cineol bei einem tolerablen Nebenwirkungsprofil zu beobachten.
# HNSCC-Zelllinien = assay: MTT assay, vitality and proliferation of HNSCC cell lines; type: cell-based; conditions: 1 mM bis 10 mM, 250 Stunden, two cell lines
# Method: Es wurden weiterführende Untersuchungen durchgeführt zur Analyse des Einflusses von Cineol auf die Vitalität und Proliferation verschiedener permanenter Zelllinien. Hierzu wurden einerseits die zwei HNSCC-Zelllinien und des Weiteren eine Fibroblastenzelllinie verwendet. Diese wurden über einen Zeitraum von 250 Stunden mit verschiedenen Cineol-Konzentrationen kultiviert (1 mM bis 10 mM) und die Vitalität der Zellen wurde jeweils mittels eines MTT-Assays untersucht.
smiles,measurement,setting,value
"CC12CCC(CC1)C(C)(C)O2 [1,8-Cineol, 1,3,3-Trimethyl-2-oxabicyclo[2.2.2]octan]",endolysosomale Lokalisierung von GSK-3,GSK-3,verringerte endolysosomale Lokalisierung
same,Phosphorylierungslevel von Akt an Serin-473,Akt,nicht wesentlich beeinflusst
same,Expression von Phosphokinasen,Phosphokinasen,veränderte Expression
same,SNOT-20-Score,"[1]; first orienting evaluation, compared with preoperative results",deutliche Verbesserung
same,Rezidivpolyposis,[1]; follow-up examination after 6 months,lediglich bei einem Patienten eine beginnende geringfügige Rezidivpolyposis
same,gastrointestinale Nebenwirkungen,[1]; in vivo,Ein Patient
same,Progression und Vitalität von HNSCC,HNSCC-Zelllinien,inhibierender Einfluss

# Source: patent EP3325012B1, “CINEOLE-CONTAINING COMPOSITION FOR TREATING NOSE POLYPS” (Maria Clementine Martin Klosterfrau Vertriebsgesellschaft …, priority 2015, dated 2017)
